Results published in the supplement of paper PMC10307832.

Experiments:
Test in all cases: relative viability (nuclei count vs DMSO), 5 days (fraction); higher = more cells survive
RERF-LC-KJ = tested on: RERF-LC-KJ
Procedure, shortened: (§1)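 Cells from lung cancer lines were seeded into 1536-well plates and, one day later, dosed by pin tool. Treatments were either a single drug or a fixed dose of an anchor drug with five library-drug doses (not always all listed) in √10 steps. After 5 days, nuclei were stained in a one-step fixation (final 0.05% Triton X-100, 1% formaldehyde, 1 ug/ml Hoechst) and counted on 4× images, and relative viability is the treated-to-vehicle nuclei ratio, as the median of duplicate plates.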

NCI-H1793 = tested on: NCI-H1793
Procedure, shortened: as §1

SK-LU-1 = tested on: SK-LU-1
Procedure, shortened: as §1

NCI-H727 = tested on: NCI-H727
Procedure, shortened: as §1

BEN = tested on: BEN
Procedure, shortened: as §1

NCI-H1944 = tested on: NCI-H1944
Procedure, shortened: as §1

HCC-827 = tested on: HCC-827
Procedure, shortened: as §1

NCI-H1650 = tested on: NCI-H1650
Procedure, shortened: as §1

NCI-H2405 = tested on: NCI-H2405
Procedure, shortened: as §1

HOP-62 = tested on: HOP-62
Procedure, shortened: as §1

201T = tested on: 201T
Procedure, shortened: as §1

LCLC-97TM1 = tested on: LCLC-97TM1
Procedure, shortened: as §1

LCLC-103H = tested on: LCLC-103H
Procedure, shortened: as §1

CAL-12T = tested on: CAL-12T
Procedure, shortened: as §1

HCC-44 = tested on: HCC-44
Procedure, shortened: as §1

NCI-H1395 = tested on: NCI-H1395
Procedure, shortened: as §1

NCI-H2228 = tested on: NCI-H2228
Procedure, shortened: as §1

NCI-H1437 = tested on: NCI-H1437
Procedure, shortened: as §1

LXF-289 = tested on: LXF-289
Procedure, shortened: as §1

NCI-H2087 = tested on: NCI-H2087
Procedure, shortened: as §1

NCI-H3122 = tested on: NCI-H3122
Procedure, shortened: as §1

NCI-H647 = tested on: NCI-H647
Procedure, shortened: as §1

NCI-H322M = tested on: NCI-H322M
Procedure, shortened: as §1

## Oc1nc(-c2ccc(C(F)(F)F)cc2)nc2c1CSCC2 [XAV939] + CS(=O)(=O)N1CCN(Cc2cc3nc(-c4cccc5[nH]ncc45)nc(N4CCOCC4)c3s2)CC1 [Pictilisib] (partner 1 µM)
RERF-LC-KJ; first compound 0.08 µM
  relative viability: 0.61
RERF-LC-KJ; first compound 0.253 µM
  relative viability: 0.457
RERF-LC-KJ; first compound 0.8 µM
  relative viability: 0.419
RERF-LC-KJ; first compound 2.53 µM
  relative viability: 0.366
NCI-H1793; first compound 0.08 µM
  relative viability: 0.344
NCI-H1793; first compound 0.253 µM
  relative viability: 0.308
NCI-H1793; first compound 0.8 µM
  relative viability: 0.308
NCI-H1793; first compound 2.53 µM
  relative viability: 0.363
SK-LU-1; first compound 0.08 µM
  relative viability: 0.631
SK-LU-1; first compound 0.253 µM
  relative viability: 0.504
SK-LU-1; first compound 0.8 µM
  relative viability: 0.646
SK-LU-1; first compound 2.53 µM
  relative viability: 0.565
NCI-H727; first compound 0.08 µM
  relative viability: 0.367
NCI-H727; first compound 0.253 µM
  relative viability: 0.324
NCI-H727; first compound 0.8 µM
  relative viability: 0.415
NCI-H727; first compound 2.53 µM
  relative viability: 0.357
BEN; first compound 0.08 µM
  relative viability: 0.579
BEN; first compound 0.253 µM
  relative viability: 0.472
BEN; first compound 0.8 µM
  relative viability: 0.529
NCI-H1944; first compound 0.08 µM
  relative viability: 0.37
NCI-H1944; first compound 0.253 µM
  relative viability: 0.197
NCI-H1944; first compound 0.8 µM
  relative viability: 0.348
NCI-H1944; first compound 2.53 µM
  relative viability: 0.287
HCC-827; first compound 0.08 µM
  relative viability: 1.05
HCC-827; first compound 0.253 µM
  relative viability: 1.02
HCC-827; first compound 0.8 µM
  relative viability: 1.24
HCC-827; first compound 2.53 µM
  relative viability: 1.21
NCI-H1650; first compound 0.08 µM
  relative viability: 0.587
NCI-H1650; first compound 0.253 µM
  relative viability: 0.615
NCI-H1650; first compound 0.8 µM
  relative viability: 0.49
NCI-H1650; first compound 2.53 µM
  relative viability: 0.394
NCI-H2405; first compound 0.08 µM
  relative viability: 0.502
NCI-H2405; first compound 0.253 µM
  relative viability: 0.526
NCI-H2405; first compound 0.8 µM
  relative viability: 0.416
NCI-H2405; first compound 2.53 µM
  relative viability: 0.378
HOP-62; first compound 0.08 µM
  relative viability: 1.04
HOP-62; first compound 0.253 µM
  relative viability: 0.62
HOP-62; first compound 0.8 µM
  relative viability: 0.596
HOP-62; first compound 2.53 µM
  relative viability: 0.672
201T; first compound 0.08 µM
  relative viability: 0.673
201T; first compound 0.253 µM
  relative viability: 0.593
201T; first compound 0.8 µM
  relative viability: 0.583
201T; first compound 2.53 µM
  relative viability: 0.525
LCLC-97TM1; first compound 0.08 µM
  relative viability: 0.169
LCLC-97TM1; first compound 0.253 µM
  relative viability: 0.198
LCLC-97TM1; first compound 0.8 µM
  relative viability: 0.165
LCLC-97TM1; first compound 2.53 µM
  relative viability: 0.18
LCLC-103H; first compound 0.08 µM
  relative viability: 0.724
LCLC-103H; first compound 0.253 µM
  relative viability: 0.483
LCLC-103H; first compound 0.8 µM
  relative viability: 0.601
LCLC-103H; first compound 2.53 µM
  relative viability: 0.498
CAL-12T; first compound 0.08 µM
  relative viability: 0.433
CAL-12T; first compound 0.253 µM
  relative viability: 0.33
CAL-12T; first compound 0.8 µM
  relative viability: 0.373
CAL-12T; first compound 2.53 µM
  relative viability: 0.34
HCC-44; first compound 0.08 µM
  relative viability: 0.748
HCC-44; first compound 0.253 µM
  relative viability: 0.627
HCC-44; first compound 0.8 µM
  relative viability: 0.577
HCC-44; first compound 2.53 µM
  relative viability: 0.636
NCI-H1395; first compound 0.08 µM
  relative viability: 0.685
NCI-H1395; first compound 0.253 µM
  relative viability: 0.58
NCI-H1395; first compound 0.8 µM
  relative viability: 0.597
NCI-H1395; first compound 2.53 µM
  relative viability: 0.675
NCI-H2228; first compound 0.08 µM
  relative viability: 0.247
NCI-H2228; first compound 0.253 µM
  relative viability: 0.304
NCI-H2228; first compound 0.8 µM
  relative viability: 0.253
NCI-H2228; first compound 2.53 µM
  relative viability: 0.382
NCI-H1437; first compound 0.08 µM
  relative viability: 0.436
NCI-H1437; first compound 0.253 µM
  relative viability: 0.44
NCI-H1437; first compound 0.8 µM
  relative viability: 0.561
NCI-H1437; first compound 2.53 µM
  relative viability: 0.234
LXF-289; first compound 0.08 µM
  relative viability: 0.872
LXF-289; first compound 0.253 µM
  relative viability: 0.731
LXF-289; first compound 0.8 µM
  relative viability: 0.764
LXF-289; first compound 2.53 µM
  relative viability: 0.597
NCI-H2087; first compound 0.08 µM
  relative viability: 0.976
NCI-H2087; first compound 0.253 µM
  relative viability: 0.636
NCI-H2087; first compound 0.8 µM
  relative viability: 0.897
NCI-H2087; first compound 2.53 µM
  relative viability: 0.876
NCI-H3122; first compound 0.08 µM
  relative viability: 0.667
NCI-H3122; first compound 0.253 µM
  relative viability: 0.533
NCI-H3122; first compound 0.8 µM
  relative viability: 0.568
NCI-H3122; first compound 2.53 µM
  relative viability: 0.381
NCI-H647; first compound 0.08 µM
  relative viability: 0.471
NCI-H647; first compound 0.253 µM
  relative viability: 0.378
NCI-H647; first compound 0.8 µM
  relative viability: 0.381
NCI-H647; first compound 2.53 µM
  relative viability: 0.51
NCI-H322M; first compound 0.08 µM
  relative viability: 0.572
NCI-H322M; first compound 0.253 µM
  relative viability: 0.491
NCI-H322M; first compound 0.8 µM
  relative viability: 0.541
NCI-H322M; first compound 2.53 µM
  relative viability: 0.439
